Measured values reported in US20250144078A1, “THIOSTREPTON-INSPIRED COMPOUNDS FOR TREATMENT OF CANCER AND PREPARATION THEREOF” (RS Oncology, llc, priority 2022, published 2025).
pIC50: −log10 of the molar value. Structures can show the parent of a compound that is named as a salt.

Assays:
PRX3 = biological target: T1, PRX3 (Homo sapiens, UniProt P30048); experiment: PRX3 crosslinking study (western blot) in Malignant Mesothelioma cells; format: cell-based; details: H-MESO cells treated 24 hours, reducing SDS-PAGE, anti-PRX3 western blot; TS at 2.5 or 5 μM
T1 construct: endogenous in cells; host or cells: H-MESO (HMESO) malignant mesothelioma cell line
T1 sequence (P30048 62-256): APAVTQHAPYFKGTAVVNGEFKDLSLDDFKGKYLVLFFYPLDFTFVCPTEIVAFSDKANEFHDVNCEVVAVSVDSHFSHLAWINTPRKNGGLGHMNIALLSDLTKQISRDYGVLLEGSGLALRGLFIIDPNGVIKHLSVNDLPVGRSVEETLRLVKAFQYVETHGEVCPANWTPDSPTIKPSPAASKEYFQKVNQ
Protocol: Malignant Mesothelioma (MM) cells (H-MESO cell line) were plated into 6-well plates in complete tissue culture media. Cells were allowed to adhere for 24 hours before being treated with indicated concentrations of thiostrepton (TS), (1) or (5) (DMSO Stocks) for 24 hours. Cell lysates were generated using standard RIPA buffer, protein concentrations were determined using a Bradford Assay and 20 μg of total protein per sample were separated by reducing SDS-Polyacrylamide Gel Electrophoresis. Proteins were transferred to a PVDF membrane, blocked with 5% Bovine Serum Albumin (BSA) for 1 hour and incubated with PRX3 primary antibody overnight at 4° C. in 1× Tris Buffered Saline with Tween (TBST). Membranes were washed 3× with 1×TBST and incubated with horseradish peroxidase conjugated (HRP) secondary antibody for 1 hour at room temperature. Membranes were washed 3× in 1×TBST and HRP signal was developed using Enhanced Chemiluminescence and visualized on a GE digital imager.

[1] = Behaviour of compounds in DMSO and in complete tissue culture media; format: physicochemical; details: from DMSO stock
Protocol: (§1) FIG. 1: Cell viability assay data in Malignant Mesothelioma (MM) cells (HMESO cell line) treated with compound (1)-HCl or (5)-HCl. N=2 technical and 2 biological replicates conducted by 2 different lab technicians. All compounds went into solution in 100% DMSO. (5)-HCl precipitated at concentrations of ˜20-80 μM when added to complete tissue culture media.

HMESO mesothelioma cells = experiment: Cell viability study (crystal violet) in HMESO mesothelioma cells; format: cell-based; details: Homo sapiens, 48 h incubation, read-out: IC50 (Concentration of drug required to kill 50% of cells)
Protocol: as §1
Cell Lines were plated in 96-well plates (Corning, Kennebunk, ME, USA) at a density of 2500 cells per well. The following day, cells were treated with test compounds diluted in complete media followed by incubation for 48 h. Post-incubation cells were washed with PBS (Corning Cellgro, Manassas, VA, USA), fixed with 3.0% formaldehyde (Fisher BioReagents, Fair Lawn, NJ, USA) in PBS, and stained for 30 min with 0.1% crystal violet (Acros Organics, Fair Lawn, NJ, USA) in water. Crystal violet stain was removed, and plates were washed with H2O and allowed to dry. To quantify cell viability, plates were imaged using the Lionheart Plate reader (BioTek Instruments, Winooski, VT, USA) and/or analyzed by absorbance at 540 nm (crystal violet dye dissolved in 100% methanol) using the Synergy HTX plate reader (BioTek Instruments, Winooski, VT, USA). […]

Q: With `C=C(NC(=O)c1csc(-c2ccc(N)cc2)n1)C(=O)NC(=C)C(=O)OC` [(5)-HCl, Methyl 2-(2-(2-(4-aminophenyl)thiazole-4-carboxamido)acrylamido)acrylate hydrochloride] as the compound, how does the “covalent PRX3 crosslinking (PRX3-X-PRX3)” value (PRX3) read?
A: Similar, yet less robust, results

Q: And the “concentrations at which compound precipitated when added to complete tissue culture media” value [1]?
A: 20 to 80 µM

Q: With `C=C(NC(=O)C(=C)NC(=O)c1csc(C2=N[C@@H]3c4csc(n4)[C@H]4NC(=O)c5csc(n5)[C@H]([C@](C)(O)[C@@H](C)O)NC(=O)[C@H]5CSC(=N5)/C(=C/C)NC(=O)[C@H]([C@@H](C)O)NC(=O)c5csc(n5)[C@]3(CC2)NC(=O)[C@H](C)NC(=O)C(=C)NC(=O)[C@H](C)NC(=O)[C@H]([C@@H](C)CC)N[C@@H]2C=Cc3c([C@H](C)O)cc(nc3[C@H]2O)C(=O)O[C@@H]4C)n1)C(N)=O` [TS, thiostrepton] as the compound, how does the “covalent PRX3 crosslinking (PRX3-X-PRX3)” value (PRX3) read?
A: resulted in covalent PRX3 crosslinking

Q: And the pIC50 (HMESO mesothelioma cells)?
A: 5.99

Q: For `C=C(NC(=O)C(=C)NC(=O)c1csc(-c2ccc(N)cc2)n1)C(N)=O` [(1)-HCl, N-(3-((3-amino-3-oxoprop-1-en-2-yl)amino)-3-oxoprop-1-en-2-yl)-2-(4-aminophenyl)thiazole-4-carboxamide hydrochloride], which “covalent PRX3 crosslinking (PRX3-X-PRX3)” value (PRX3) is on record?
A: No PRX3-X-PRX3 crosslinking was observed

Q: What about the pIC50 (HMESO mesothelioma cells) of the same compound?
A: 3.13
